Data set [1] in a line: Lipophilicity, log D of the compound. The data set is classed as physicochemical. As to conditions: octanol/water.
Data set [2] is described as follows: Hepatic clearance in human liver microsomes. The class given is ADME, Microsome. As to conditions: read-out: CLH. For orientation: Microsomes from liver hold many membrane-bound enzymes, among them those of drug oxidation.
Data set [3] in a line: Systemic clearance in rat at 1 mg/kg, iv. The data set is classed as ADME, organism-based. Also noted: dose 1 mg/kg, route intravenous. As to conditions: in vivo.
Data set [4] is described as follows: Cmax in rat at 5 mg/kg, po. The class given is ADME, organism-based. More on the design: dose 5 mg/kg, route oral. Conditions: in vivo.
Data set [5] in a line: Solubility of the compound at pH 6.5. The class given is physicochemical. As to conditions: buffer.
A short description of data set [6]: AUC (last) in rat at 5 mg/kg, po. As to conditions: plasma. The class given is ADME, organism-based. More on the design: time 0 - last, dose 5 mg/kg, route oral.
Data set [7] in a line: Volume of distribution in rat at 1 mg/kg, iv. The data set is classed as ADME, organism-based. More on the design: dose 1 mg/kg, route intravenous. As to conditions: in vivo.
Data set [8] can be described thus: Thermodynamic solubility of the compound at pH 1.2. As to conditions: buffer, read-out: Therm_solubility. The data set is classed as physicochemical.
Data set [9] in a line: Oral bioavailability in rat at 5 mg/kg. The data set is classed as ADME, organism-based. As to conditions: in vivo.

The structures appear in SMILES notation. ≈ marks a conversion by molar mass, not a printed value.

We go through 21 molecules from ChEMBL document CHEMBL2417512, “Spirolactam-based acetyl-CoA carboxylase inhibitors: toward improved metabolic stability of a chromanone lead structure” (J Med Chem, 2013).

For orientation: logD means lipophilicity at a set pH, counting ionised and neutral species. Regarding `CN(C)c1ccc2ccc(C(=O)N3CCC4(CC3)Cc3cn(C(C)(C)C)nc3C(=O)N4)cc2n1`, in data set [1], the logD worked out at 1.9. For the same molecule, in [2], the microsomal CLint was found to be 19 µL/min/mg.

As to `CC(C)(C)n1cc2c(n1)C(=O)NC1(CCN(C(=O)c3ccc4[nH]nc(C(F)(F)F)c4c3)CC1)C2`, the logD in data set [1] was determined as 2.5. For the same molecule, the microsomal CLint in data set [2] is less than 8 µL/min/mg.

For `CC(C)(C)n1cc2c(n1)C(=O)NC1(CCN(C(=O)c3ccc4[nH]nc(Cl)c4c3)CC1)C2`, the logD in data set [1] stood at 1.8. Besides, the microsomal CLint in data set [2] was less than 8 µL/min/mg.

As for `CC(C)(C)n1cc2c(n1)C(=O)NC1(CCN(C(=O)c3ccc4[nH]cc(Cl)c4c3)CC1)C2`, the logD in data set [1] worked out at 2.6. The microsomal CLint in data set [2] amounted to 17 µL/min/mg.

On to `CC(C)(C)n1cc2c(n1)C(=O)NC1(CCN(C(=O)c3ccc4c(Cl)c[nH]c4c3)CC1)C2`, for which the logD in [1] was found to be 3.5. In data set [2], the microsomal CLint stood at 31 µL/min/mg.

Turning to `CC(C)(C)n1cc2c(n1)C(=O)NC1(CCN(C(=O)c3cnc4c(Cl)c[nH]c4c3)CC1)C2`, in data set [1], the logD is 1.4. Also, in data set [2], the microsomal CLint was less than 8 µL/min/mg.

`COc1cc2cc(C(=O)N3CCC4(CC3)Cc3cn(C(C)(C)C)nc3C(=O)N4)ccc2cn1` returned a logD in data set [1] of 1.6. For the same molecule, the microsomal CLint in [2] is less than 8 µL/min/mg.

The clearance is the rate of elimination divided by the concentration. Read a low clearance as a low capacity for elimination. As usually defined, the Cmax is the peak of the concentration-time curve. Usually solubility stands for the concentration that dissolves in the medium under given conditions. Higher therefore signals much dissolved substance. As a reminder, the AUC(0-t) is the area under the concentration-time curve up to a stated or last time point. By Vd is commonly meant a proportionality between amount in the body and measured concentration, not a real space. A low value points to confinement near the circulation. For orientation: bioavailability means the share of a dose that reaches the circulation, judged against a reference dose that is usually intravenous. Read a low bioavailability as little systemic uptake. As for `COc1ccc2ccc(C(=O)N3CCC4(CC3)Cc3cn(C(C)(C)C)nc3C(=O)N4)cc2n1`, in data set [3], the clearance was determined as 29 mL/min/kg. In [4], this molecule yielded a Cmax of 403 ng/mL. The molecule also returned a solubility in data set [5] of 0.05 µg/mL (≈ 0.112 µM). The molecule also returned an AUC(0-t) in [6] of 2070 ng·h/mL. This molecule also yielded a Vd in data set [7] of 1.7 L/kg. Also, the solubility thermodynamic in data set [8] came out at 0.49 µg/mL (≈ 1.09 µM). The bioavailability in [9] was 71%. Further, the logD in [1] came to 2.2. Besides, the microsomal CLint in data set [2] was less than 8 µL/min/mg.

As to `COc1nccc2ccc(C(=O)N3CCC4(CC3)Cc3cn(C(C)(C)C)nc3C(=O)N4)cc12`, the clearance in data set [3] stood at 41 mL/min/kg. The molecule also returned a Cmax in [4] of 186 ng/mL. Further, the solubility in data set [5] came to 0.13 µg/mL (≈ 0.29 µM). The molecule further gave an AUC(0-t) in data set [6] of 713 ng·h/mL. In data set [9], this molecule showed a bioavailability of 28%. Further, the logD in data set [1] was determined as 2. Also, in data set [2], the microsomal CLint is 12 µL/min/mg.

In the case of `CNc1ccc2ccc(C(=O)N3CCC4(CC3)Cc3cn(C(C)(C)C)nc3C(=O)N4)cc2n1`, in [8], the solubility thermodynamic amounted to 4.8 µg/mL (≈ 10.7 µM). For the same molecule, in [1], the logD is 1.5. Further, the microsomal CLint in data set [2] was found to be 9 µL/min/mg.

Take `CNc1nccc2ccc(C(=O)N3CCC4(CC3)Cc3cn(C(C)(C)C)nc3C(=O)N4)cc12`: in data set [1], the logD was 1.5. In addition, the microsomal CLint in [2] stood at 25 µL/min/mg.

Take `CCCNc1ccc2ccc(C(=O)N3CCC4(CC3)Cc3cn(C(C)(C)C)nc3C(=O)N4)cc2n1`: the pH-dependent lipophilicity (logD) in data set [1] was determined as 2.1. The microsomal CLint in [2] was 29 µL/min/mg.

Take `CC(C)(C)n1cc2c(n1)C(=O)CC1(CCN(C(=O)c3ccc4[nH]ncc4c3)CC1)O2`: the logD in data set [1] came out at 1.4. The microsomal CLint in [2] was less than 9 µL/min/mg.

In data set [1], `Cc1ccc2c(c1)C(=O)CC1(CCN(C(=O)c3ccc4[nH]ncc4c3)CC1)O2` registered a logD of 2.5. Moreover, the microsomal CLint in data set [2] is 19 µL/min/mg.

Molecule `CC(C)(C)n1cc2c(n1)C(=O)NC1(CCN(C(=O)c3ccc4[nH]ncc4c3)CC1)C2` showed a logD in [1] of 1. In addition, the microsomal CLint in data set [2] is less than 8 µL/min/mg.

On to `Cc1n[nH]c2c(C)cc(C(=O)N3CCC4(CC3)Cc3cn(C(C)(C)C)nc3C(=O)N4)cc12`, for which the logD in [1] was determined as 1.5. Moreover, in data set [2], the microsomal CLint was less than 8 µL/min/mg.

For `Cc1n[nH]c2c(C)cc(C(=O)N3CCC4(CC3)Cc3cn(C(C)C)nc3C(=O)N4)cc12`, the logD in data set [1] was determined as 1.1. The microsomal CLint in data set [2] was less than 8 µL/min/mg.

As to `CCC(C)(C)n1cc2c(n1)C(=O)NC1(CCN(C(=O)c3cc(C)c4[nH]nc(C)c4c3)CC1)C2`, the pH-dependent lipophilicity (logD) in data set [1] worked out at 1.7. Also, the microsomal CLint in [2] was found to be 35 µL/min/mg.

`Cc1n[nH]c2c(C)cc(C(=O)N3CCC4(CC3)Cc3cnn(C(C)(C)C)c3C(=O)N4)cc12`: the logD in [1] turned out to be 2.6. Also, in [2], the microsomal CLint was 17 µL/min/mg.

In data set [1], `Cc1n[nH]c2c(C)cc(C(=O)N3CCC4(CC3)Cc3cnn(C(C)C)c3C(=O)N4)cc12` returned a logD of 1.7. The microsomal CLint in [2] was less than 8 µL/min/mg.

Turning to `Cc1n[nH]c2c(C)cc(C(=O)N3CCC4(CC3)Cc3cn(C(C)(C)C)nc3C(=O)N4C)cc12`, the logD in [1] was determined as 1.4. Besides, in data set [2], the microsomal CLint was 14 µL/min/mg.
